Assays:
Assay in all cases: NCI-60 single dose screen, sulforhodamine B
Format in all cases: cell-based, human
[1] = tested on: MDA-MB-231/ATCC; details: Breast cancer MDA-MB-231/ATCC; single dose 10^−5 M
Procedure: (§1) In this research, all of the newly synthesised quinazolinones were subjected to in vitro anticancer screening by the National Cancer Institute (USA) against 60 different human cell lines including leukaemia, non-small cell lung cancer, colon cancer, CNS cancer, melanoma, ovarian cancer, renal cancer, prostate cancer, and breast cancer. The tested compounds were evaluated at a single dose (10^−5 M). […] Regarding the benzenesulfonamide counterparts, the introduction of an electron-withdrawing group on the benzenesulfonamide moiety increased the inhibitory activity on the glioblastoma cell line SNB-75 as depicted by the chloro derivative 5c (GI% = 63.09) which was higher than that of the unsubstituted derivative 5a (GI% = 40.06) and the methyl derivative 5b (GI% = 33.03).
(§2) 1. Cytotoxicity screening against a panel of 60 human tumor cell lines
(§3) All the compounds were selected for NCI-60 Human Tumor Cell Lines Screen by the Developmental Therapeutics Program (DTP) at the National Cancer Institute (NCI), Maryland, USA. The operation of this screen utilizes 60 different human tumor cell lines, representing leukemia, non-small-cell lung cancer, colon cancer, CNS cancer, melanoma, ovarian cancer, renal cancer, prostate cancer and breas t cancer.
(§4) The compounds were supplied as dry powder and a single concentration is tested in all 60 cell lines at a single dose of 10 µM solution in dimethyl sulfoxide (DMSO) using Sulforhodamine B assay. Briefly, cells are seeded in 96 well plates at an appropriate density and incubated for 1 day. After 1 day, some of the plates are processed to determine the density time zero. To the remaining plates, compounds are added at 10 µM concentration. Plates are incubated a further 2 days, then fixed and staine d with sulphorhodamine B. Growth inhibition is calculated relative to cells without drug treatment and the time zero control. The use of a time zero control allows the determination of cell kill as well as net growth inhibition. […]

[2] = tested on: BT-549; details: Breast cancer BT-549; single dose 10^−5 M
Procedure: as §1, §2, §3, §4

[3] = tested on: HCC-2998; details: Colon cancer HCC-2998; single dose 10^−5 M
Procedure: as §1, §2, §3, §4

[4] = tested on: UACC-62; details: Melanoma UACC-62; single dose 10^−5 M
Procedure: as §1, §2, §3, §4

[5] = tested on: SF-295; details: CNS cancer SF-295; single dose 10^−5 M
Procedure: as §1, §2, §3, §4

[6] = tested on: RPMI-8226; details: Leukaemia RPMI-8226; single dose 10^−5 M
Procedure: as §1, §2, §3, §4

[7] = tested on: MALME-3M; details: Melanoma MALME-3M; single dose 10^−5 M
Procedure: as §1, §2, §3, §4

[8] = tested on: SNB-19; details: CNS cancer SNB-19; single dose 10^−5 M
Procedure: as §1, §2, §3, §4

[9] = tested on: HCT-116; details: Colon cancer HCT-116; single dose 10^−5 M
Procedure: as §1, §2, §3, §4

[10] = tested on: HS 578T; details: Breast cancer HS 578T; single dose 10^−5 M
Procedure: as §1, §2, §3, §4

[11] = tested on: NCI/ADR-RES; details: Ovarian cancer NCI/ADR-RES; single dose 10^−5 M
Procedure: as §1, §2, §3, §4

[12] = tested on: NCI-H522; details: Non-small cell lung cancer NCI-H522; single dose 10^−5 M
Procedure: as §1, §2, §3, §4

[13] = tested on: MOLT-4; details: Leukaemia MOLT-4; single dose 10^−5 M
Procedure: as §1, §2, §3, §4

[14] = tested on: NCI-H460; details: Non-small cell lung cancer NCI-H460; single dose 10^−5 M
Procedure: as §1, §2, §3, §4

[15] = tested on: MDA-MB-435; details: Melanoma MDA-MB-435; single dose 10^−5 M
Procedure: as §1, §2, §3, §4

[16] = tested on: U251; details: CNS cancer U251; single dose 10^−5 M
Procedure: as §1, §2, §3, §4

[17] = tested on: HT29; details: Colon cancer HT29; single dose 10^−5 M
Procedure: as §1, §2, §3, §4

[18] = tested on: T-47D; details: Breast cancer T-47D; single dose 10^−5 M
Procedure: as §1, §2, §3, §4

[19] = tested on: HOP-92; details: Non-small cell lung cancer HOP-92; single dose 10^−5 M
Procedure: as §1, §2, §3, §4

[20] = tested on: SN12C; details: Renal cancer SN12C; single dose 10^−5 M
Procedure: as §1, §2, §3, §4

[21] = tested on: HOP-62; details: Non-small cell lung cancer HOP-62; single dose 10^−5 M
Procedure: as §1, §2, §3, §4

[22] = tested on: OVCAR-3; details: Ovarian cancer OVCAR-3; single dose 10^−5 M
Procedure: as §1, §2, §3, §4

[23] = tested on: SR; details: Leukaemia SR; single dose 10^−5 M
Procedure: as §1, §2, §3, §4

[24] = tested on: RXF 393; details: Renal cancer RXF 393; single dose 10^−5 M
Procedure: as §1, §2, §3, §4

[25] = tested on: NCI-H322M; details: Non-small cell lung cancer NCI-H322M; single dose 10^−5 M
Procedure: as §1, §2, §3, §4

[26] = tested on: PC-3; details: Prostate cancer PC-3; single dose 10^−5 M
Procedure: as §1, §2, §3, §4

[27] = tested on: SF-268; details: CNS cancer SF-268; single dose 10^−5 M
Procedure: as §1, §2, §3, §4

[28] = tested on: HCT-15; details: Colon cancer HCT-15; single dose 10^−5 M
Procedure: as §1, §2, §3, §4

[29] = tested on: SNB-75; details: CNS cancer SNB-75; single dose 10^−5 M
Procedure: as §1, §2, §3, §4

[30] = tested on: OVCAR-8; details: Ovarian cancer OVCAR-8; single dose 10^−5 M
Procedure: as §1, §2, §3, §4

[31] = tested on: KM12; details: Colon cancer KM12; single dose 10^−5 M
Procedure: as §1, §2, §3, §4

O=C(CNn1c(COc2ccccc2)nc2ccccc2c1=O)Nc1ccccc1 [Compound 4a, 2-((4-oxo-2-(phenoxymethyl)quinazolin-3(4H)-yl)amino)-N-phenylacetamide]
GI% at 10^−5 M [1]: 18.56% | GI% at 10^−5 M [2]: – (– means GI < 10%) | GI% at 10^−5 M [3]: – (– means GI < 10%) | GI% at 10^−5 M [4]: – (– means GI < 10%) | GI% at 10^−5 M [5]: – (– means GI < 10%) | GI% at 10^−5 M [6]: – (– means GI < 10%) | GI% at 10^−5 M [7]: – (– means GI < 10%) | GI% at 10^−5 M [8]: – (– means GI < 10%) | GI% at 10^−5 M [9]: – (– means GI < 10%) | GI% at 10^−5 M [10]: 11.86% | GI% at 10^−5 M [11]: – (– means GI < 10%) | GI% at 10^−5 M [12]: 13.74% | GI% at 10^−5 M [13]: – (– means GI < 10%) | GI% at 10^−5 M [14]: – (– means GI < 10%) | GI% at 10^−5 M [15]: – (– means GI < 10%) | GI% at 10^−5 M [16]: – (– means GI < 10%) | GI% at 10^−5 M [17]: – (– means GI < 10%) | GI% at 10^−5 M [18]: – (– means GI < 10%) | GI% at 10^−5 M [19]: 15.94% | GI% at 10^−5 M [20]: 13.08% | GI% at 10^−5 M [21]: 13.59% | GI% at 10^−5 M [22]: – (– means GI < 10%) | GI% at 10^−5 M [23]: – (– means GI < 10%) | GI% at 10^−5 M [24]: – (– means GI < 10%) | GI% at 10^−5 M [25]: – (– means GI < 10%) | GI% at 10^−5 M [26]: 10.95% | GI% at 10^−5 M [27]: – (– means GI < 10%) | GI% at 10^−5 M [28]: – (– means GI < 10%) | GI% at 10^−5 M [29]: 62.34% | GI% at 10^−5 M [30]: – (– means GI < 10%) | GI% at 10^−5 M [31]: – (– means GI < 10%)

COc1ccc(NC(=O)CNn2c(COc3ccccc3)nc3ccccc3c2=O)cc1 [Compound 4b, N-(4-methoxyphenyl)-2-((4-oxo-2-(phenoxymethyl)quinazolin-3(4H)-yl)amino)acetamide]
GI% at 10^−5 M [1]: 11.38% | GI% at 10^−5 M [2]: – (– means GI < 10%) | GI% at 10^−5 M [3]: – (– means GI < 10%) | GI% at 10^−5 M [4]: – (– means GI < 10%) | GI% at 10^−5 M [5]: – (– means GI < 10%) | GI% at 10^−5 M [6]: – (– means GI < 10%) | GI% at 10^−5 M [7]: – (– means GI < 10%) | GI% at 10^−5 M [8]: – (– means GI < 10%) | GI% at 10^−5 M [9]: – (– means GI < 10%) | GI% at 10^−5 M [10]: – (– means GI < 10%) | GI% at 10^−5 M [11]: – (– means GI < 10%) | GI% at 10^−5 M [12]: 12.54% | GI% at 10^−5 M [13]: – (– means GI < 10%) | GI% at 10^−5 M [14]: – (– means GI < 10%) | GI% at 10^−5 M [15]: – (– means GI < 10%) | GI% at 10^−5 M [16]: – (– means GI < 10%) | GI% at 10^−5 M [17]: – (– means GI < 10%) | GI% at 10^−5 M [18]: – (– means GI < 10%) | GI% at 10^−5 M [19]: 16.34% | GI% at 10^−5 M [20]: 12.37% | GI% at 10^−5 M [21]: 12.71% | GI% at 10^−5 M [22]: – (– means GI < 10%) | GI% at 10^−5 M [23]: – (– means GI < 10%) | GI% at 10^−5 M [24]: – (– means GI < 10%) | GI% at 10^−5 M [25]: – (– means GI < 10%) | GI% at 10^−5 M [26]: 9.76% | GI% at 10^−5 M [27]: – (– means GI < 10%) | GI% at 10^−5 M [28]: – (– means GI < 10%) | GI% at 10^−5 M [29]: 21.9% | GI% at 10^−5 M [30]: – (– means GI < 10%) | GI% at 10^−5 M [31]: – (– means GI < 10%)
